# Reference: US9227982B2 (NOVARTIS AG, priority 2011, dated 2016)
# Experiments:
# [1] = molecular target: human tankyrase 1 PARP catalytic domain, TNKS1P (Homo sapiens (Human), UniProt O95271); test: TNKS1 autoparsylation enzymatic assay (LC/MS detection of nicotinamide); type: biochemical; conditions: 20 nM enzyme, 250 μM β-NAD+, 60 min, read-out: TNKS1 AP IC50
# From the text: (§1) The human tankyrase 1 PARP catalytic domain, TNKS1P, was cloned into a pDONR221 vector using the Invitrogen Gateway Technology. This entry clone was then subcloned into the destination vector pDEST20 to obtain the N-terminal Glutathione S-transferase (GST)-tagged fusion protein. GST-TNKS1P was then expressed in Sf21 cells using the Invitrogen baculovirus expression system (Invitrogen-Bac-to-Bac® Baculovirus Expression System, Version D). The protein was purified by a GSTrap column (GE Healthcare). The N-terminal GST-tagged tankyrase 2 protein PARP domain, TNKS2P, was cloned, expressed, and purified in a similar manner. Human PARP1 (Cat. No. 4668-100-01) and activated DNA (Cat. No. 4671-096-06) were purchased from Trevigen, Inc. PARP2 (Cat. No. ALX-201-064-C020) was purchased from Alexis Biochemical.
# The % Inhibition was calculated as: (Control−Sample)/(Control−Background)*100. “Control” is the average value of 8 wells without compound; and “Background” is the average of 8 wells mixed with 5× quenching solution measured prior to initiation of the reaction.
# [2] = system: Axin2 protein; test: Cellular ELISA assay of Axin2 protein stabilization in SW480 cells; type: cell-based; conditions: Homo sapiens, 24 hrs treatment, read-out: Axin AC50
# Method: Cellular ELISA Assay to Determine Compound Effect on Stabilizing the Axin2 Protein
# Compound activity in stabilizing the Axin2 protein was measured by Sandwich Enzyme-Linked Immuosorbent (ELISA) assay in the colorectal cell line SW480. 30,000 SW480 cells were seeded per well in 96-well plate and incubated overnight prior to compound treatment. Cells were then treated with compounds in 6-point dilution starting at 10 μM for 24 hrs. Cells were then washed with 100 μL of cold Phosphate Buffer Saline (PBS), and lysed in 125 μl of cold 1× lysis buffer (Cell Signaling Technology, 9803) supplemented with Protease inhibitor (Roche, 11836170) and Phosphatase inhibitors (Sigma, P2850, P5726). For the ELISA assay, anti Axin-2 capture antibody (Strategic Diagnostics) antibody was diluted to a concentration of 1 μg/ml (1:1000) in Carbonate Coating buffer, pH 9.2 (Sigma, C3041-50CAP). 100μ of the diluted anti Axin-2 capture antibody per well was then used to coat the 96-well ELISA plate (Thermo Electron Corp., MicroLite 1 flat bottom plate #7571) overnight at 4° C. Plates were then washed three times with 300 of wash solution, PBST20 (PBS+0.05% Tween), and blocked with 300 μl/well 1% BSA/PBS (BSA, Millipore Probumin #82-045-1) for 1.5 hours at room temperature while shaking gently. After blocking, plates were then washed three times with 300 of wash solution. 100 μL of prepared SW480 cell lysate was then added to each well and incubated at room temperature for 2 hours while shaking gently. After washing, 100 μL of Biotinylated anti-Axin2 antibody (CST, 2151) was added to each well and incubated room temperature for 2 hours. 100 μL of Streptavidin-HRP (R&D systems, DY998) diluted 1:200 in 1% BSA/PBS was then added in each well and incubate for 30 mins at R/T in the dark.
# [3] = system: Non-small lung cancer ABC-1 cells; test: Cellular proliferation assay (CellTiter-Glo) in ABC-1 cells; type: cell-based; conditions: Homo sapiens, 72 h, 3 days of compound treatment
# Method: Cellular Proliferation Assay to Determine Compound Inhibition of Cancer Cell Growth
# Non-small lung cancer ABC-1 cells were plated at 5000 cells per well in 96-well plates and treated with 8 serial compound dilutions starting from 10 μM as the highest concentration. Viable cells were measured after 3 days of compound treatment using the CellTiter-Glo assay (Promega, G7570). Assay was performed following the manufacture protocol.
# [4] = system: Herpes Simplex Virus (HSV); conditions: cited from earlier work
# [5] = molecular target: PARP2 (Mus musculus (Mouse), UniProt O88554); test: PARP2 autoparsylation enzymatic assay (LC/MS detection of nicotinamide); type: biochemical; conditions: 20 nM enzyme, 250 μM β-NAD+, 60 min
# Chain of PARP2 (O88554 whole entry): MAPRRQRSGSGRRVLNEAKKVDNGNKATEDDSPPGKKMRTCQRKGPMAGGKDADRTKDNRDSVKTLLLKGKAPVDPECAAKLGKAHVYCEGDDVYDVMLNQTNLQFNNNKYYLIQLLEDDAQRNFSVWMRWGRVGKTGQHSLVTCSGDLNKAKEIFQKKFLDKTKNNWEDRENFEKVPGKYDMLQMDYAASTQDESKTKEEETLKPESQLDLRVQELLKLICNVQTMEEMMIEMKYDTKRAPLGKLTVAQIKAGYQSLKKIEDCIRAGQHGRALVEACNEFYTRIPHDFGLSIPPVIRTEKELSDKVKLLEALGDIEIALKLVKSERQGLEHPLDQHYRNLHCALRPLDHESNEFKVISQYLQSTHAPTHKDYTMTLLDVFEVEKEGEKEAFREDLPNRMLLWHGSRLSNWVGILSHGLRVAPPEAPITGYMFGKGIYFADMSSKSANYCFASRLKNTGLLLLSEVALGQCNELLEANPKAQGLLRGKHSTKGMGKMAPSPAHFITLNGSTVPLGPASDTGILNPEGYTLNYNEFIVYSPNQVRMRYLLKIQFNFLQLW
# From the text: as §1, with “manner.” for “manner. Human PARP1 (Cat. No. 4668-100-01) and activated DNA (Cat. No. 4671-096-06) were purchased from Trevigen, Inc. PARP2 (Cat. No. ALX-201-064-C020) was purchased from Alexis Biochemical.”
# The autoparsylation activity of the TNKS 1/2 or PARP1/2 enzymes was measured by the liquid chromatography-mass spectrometry (LC/MS) detection of nicotinamide as readout. Compound activity in inhibiting the TNKS and PARP autoparsylation was evaluated by IC50 measurements. […] For the background control wells, 10 μL of the 5× quenching solution per well was added prior to the addition of β-NAD^+. The % Inhibition was calculated as: (Control−Sample)/(Control−Background)*100.
# Chain of human tankyrase 1 PARP catalytic domain, TNKS1P (O95271 1112-1317): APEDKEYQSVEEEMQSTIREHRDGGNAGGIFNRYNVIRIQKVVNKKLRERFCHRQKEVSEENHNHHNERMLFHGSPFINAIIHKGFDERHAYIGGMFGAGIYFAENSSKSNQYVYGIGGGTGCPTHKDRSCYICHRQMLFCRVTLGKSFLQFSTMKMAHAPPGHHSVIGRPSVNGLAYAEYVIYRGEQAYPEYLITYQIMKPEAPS
IC50 [1] [µM],IC50 [3] [µM],Molecule,AC50 [2] [µM],HSV viral growth [4],HSV viral protein expression [4],IC50 [5] [µM]
1.15 ± 0.02,> 10,O=C(CCc1ccccc1)N(Cc1nc2c(c(=O)[nH]1)COCC2)Cc1cccs1 [Example 1],> 10,,,
0.299 ± 0.026,> 10,"O=C(CCc1ccc(F)cc1)N(Cc1nc2c(c(=O)[nH]1)COCC2)Cc1cccs1 [Example 2, 3-(4-Fluoro-phenyl)-N-(4-oxo-3,5,7,8-tetrahydro-4H-pyrano[4,3-d]pyrimidin-2-ylmethyl)-N-thiophen-2-ylmethyl-propionamide]",8.2 ± 0.3,,,
0.271 ± 0.045,8.74,"O=C(CCc1ccccc1F)N(Cc1nc2c(c(=O)[nH]1)COCC2)Cc1cccs1 [Example 4, 3-(2-Fluoro-phenyl)-N-(4-oxo-3,5,7,8-tetrahydro-4H-pyrano[4,3-d]pyrimidin-2-ylmethyl)-N-thiophen-2-ylmethyl-propionamide]",4.1 ± 2.1,,,
1.02 ± 0.003,> 10,"O=C(CCc1cccc(O)c1)N(Cc1nc2c(c(=O)[nH]1)COCC2)Cc1cccs1 [Example 7, 3-(3-Hydroxy-phenyl)-N-(4-oxo-3,5,7,8-tetrahydro-4H-pyrano[4,3-d]pyrimidin-2-ylmethyl)-N-thiophen-2-ylmethyl-propionamide]",> 10,,,

# More lines, now with the values behind:
Molecule,IC50 [1] [µM],IC50 [3] [µM],AC50 [2] [µM],HSV viral growth [4],HSV viral protein expression [4],IC50 [5] [µM]
Oc1nc(-c2ccc(C(F)(F)F)cc2)nc2c1CSCC2 [XAV939],,,,decreased viral growth,suppressed HSV viral protein expression,
"N-((4-0xo-4,5,7,8-tetrahydro-3H-pyrano[4,3-d]pyrimidin-2-yl)methyl)-3-phenyl-N-(thiophen-3-ylmethyl)propanamide [Example 18]",5.17 ± 0.46,,,,,10.4 ± 0.8
